Experimental data as given in US20090281025A1, “INHIBITION OF TUMOR GROWTH AND METASTASIS BY ATF2-DERIVED PEPTIDES” (Mount Sinai School Of Medicine of New York University, priority 2004, published 2009).
Values joined by “and” are separate entries in the source; they are usually repeats but may differ in a detail not shown here. Identical values can stand only once. “Also recorded” adds a separate entry of the source.

What was measured:
SW1 tumors = test: cDNA microarray gene expression profiling of SW1 tumors; assay type: in vivo, mouse
Text: FIGS. 8A and 8B show gene profiling analysis of SW1 tumors expressing the ATF2^51-100 peptide. Tumors generated, in the absence or presence of a peptide, were used as source of mRNA for array analysis of 10K mouse genes (see Example 5). […] In all cases, the data represent analyses carried out 4 times from 4 different pools of tumors.
To elucidate the molecular pathways affected by expression of the ATF2^51-100 peptide, we used cDNA microarray analysis to compare the RNA expression profiles of SW1 tumors that express this peptide or a control vector (FIG. 8A). The 10k mouse Gem 2 gene set (Incyte Genomics Inc, Palo Alto, Calif.) was printed at the NCI on poly-L-lysine-coated glass using a Biorobotics TASII arrayer (Cambridge, England). All protocols for manufacturing and hybridization of microarrays are posted on the NCI web site (see, e.g., nciarray.nci.nih.gov). Approximately 20 μg of total RNA were used in the reverse transcription reaction to directly label the probe with Cy-5 dUTP or Cy-3 dUTP (Amersham). Hybridizations were performed at 65° C. for 12-18 h in a hybridization volume of 35 μL. The hybridized arrays were scanned using an Axon GenePix 4000 scanner (Union City, Calif.) and fluorescence data were collected using the GenePix software.
mRNA was prepared from a pool of 4 tumors obtained from two different experiments. In both cases, tumors were excised 2 weeks after subcutaneous injection of cells. Because the fluorescently labeled Cy dyes may incorporate into the reverse-transcribed cDNA with different efficiencies, RNA isolated from both cell types was always labeled with both combinations of Cy dyes. […] SW1 vector control cells were labeled with Cy-3 (F532) and the SW1-ATF 51-100 cells were labeled with Cy-5 (F635).

[1] = system: FEMX human melanoma cells; test: Growth and TUNEL apoptosis of FEMX human melanoma tumors expressing ATF2 peptide in nude mice; assay type: in vivo
Text: LU1205 or FEMX human melanoma tumor-derived cell lines that constitutively express ATF2^51-100 peptide or that contain control vector were each injected subcutaneously into a group of 6 nude mice (10^6 cells per injection) per cell line per experiment. […] The data shown represent three experiments. Bars represent standard deviation, P<0.0015. […] The data shown represent three experiments. Bars represent standard deviation, P<0.0021.
The ability of expressed ATF2^51-100 peptide to affect the tumorigenicity of human melanoma cells in vivo was examined. To this end, growth of LU1205 and FEMX human melanoma cells were monitored in nude mice in the presence or absence of treatment that induced apoptosis in vitro. LU1205, FEMX and SW-1 cells that express control or ATF2^51-100 peptide were trypsinized, resuspended in PBS and injected SC (1×10^6) into 6-7 week old mice in the lower flank. When the tumor reached the size of about 50 mm^3, 10 μM of SB203580 was injected into 4 areas of the LU1205 tumors every 4 days during a 2 week period. For FEMX tumors, UCN-01 (5 mg/Kg) was fed by gavage, three times per week for a total of 2 weeks. Tumor growth was monitored every two days. Tissue samples were fixed in formalin and embedded in paraffin. Hematoxylin and eosin (H&E), TUNEL staining was performed as previously described (Bhoumik et al., Clin. Cancer Res., 2001; 2:331-342).

[2] = tumors expressing peptide vs control vector

Ratio ATFp2-Cy5 vs parental control-Cy3: Mme (membrane metallo endopeptidase) (SW1 tumors; upregulated, IMAGE: 849871, hybridizations #1-#4, listed as ATFp2): 4.8477 and 4.8652 and 4.8096 and 4.5247
Ratio ATFp2-Cy5 vs parental control-Cy3: Akr1c13 (aldo-keto reductase family 1, member C13) (SW1 tumors; upregulated, IMAGE: 1052178, hybridizations #1-#4, listed as ATFp2): 3.6319 and 3.6450 and 3.4859 and 3.4284
Ratio ATFp2-Cy5 vs parental control-Cy3: Tna (tetranectin (plasminogen-binding protein)) (SW1 tumors; upregulated, IMAGE: 1068748, hybridizations #1-#4, listed as ATFp2): 5.0430 and 5.0612 and 4.9219 and 4.6123
Ratio ATFp2-Cy5 vs parental control-Cy3: Top1 (topoisomerase (DNA) I) (SW1 tumors; upregulated, IMAGE: 1107479, hybridizations #1-#4, listed as ATFp2): 2.6799 and 2.6896 and 3.4635 and 3.3665
Ratio ATFp2-Cy5 vs parental control-Cy3: Igfbp2 (insulin-like growth factor binding protein 2) (SW1 tumors; upregulated, IMAGE: 1277469, hybridizations #1-#4, listed as ATFp2): 3.2649 and 3.2767 and 3.3268 and 3.0043
Substance: ATF2^51-100: amino-terminal peptide of ATF2, amino acid residue 51 to 100 (about a 50 amino acid peptide), expressed in tumor cells (MTLKFGPARNDSVIVADQTPTPTRFLKNCEEVGLFNELASPFENEFKKAS; UniProt P15336 51-100, looked up, fragment)
expression of Fas-associated genes (SW1 tumors; [2]): down-regulation
expression of growth-associated genes (epidermal growth factor, hepatoma-derived growth factor, insulin-like growth factor) and interferon-associated genes (SW1 tumors; [2]): consistent down-regulation
expression of tumor necrosis factor-related genes (SW1 tumors; [2]): strongly upregulated
Ratio ATFp2-Cy5 vs parental control-Cy3: Kifap3 (kinesin-associated protein 3) (SW1 tumors; upregulated, IMAGE: 331395, hybridizations #1-#4, listed as ATFp2): 2.1192 and 2.1268 and 2.9811 and 3.9220
Ratio ATFp2-Cy5 vs parental control-Cy3: Hbb-b1 (hemoglobin, beta adult major chain) (SW1 tumors; upregulated, IMAGE: 332935, hybridizations #1-#4, listed as ATFp2): 3.1997 and 3.2112 and 2.7725 and 3.6146
Ratio ATFp2-Cy5 vs parental control-Cy3: Hbb-b1 (hemoglobin, beta adult major chain) (SW1 tumors; upregulated, IMAGE: 518979, hybridizations #1-#4, listed as ATFp2): 2.8994 and 2.9099 and 2.4766 and 2.5621
Ratio ATFp2-Cy5 vs parental control-Cy3: D0H4S114 (DNA segment, human D4S114) (SW1 tumors; upregulated, IMAGE: 535754, hybridizations #1-#4, listed as ATFp2): 3.0625 and 3.0736 and 4.2117 and 3.5432
Ratio ATFp2-Cy5 vs parental control-Cy3: Scyb13 (small inducible cytokine subfamily B (Cys-X-Cys), member 13) (SW1 tumors; upregulated, IMAGE: 596683, hybridizations #1-#4, listed as ATFp2): 3.6935 and 3.7069 and 4.4104 and 4.1619
Ratio ATFp2-Cy5 vs parental control-Cy3: C85356 (expressed sequence C85356) (SW1 tumors; upregulated, IMAGE: 776163, hybridizations #1-#4, listed as ATFp2): 6.2407 and 6.2633 and 5.4673 and 4.7632
Ratio ATFp2-Cy5 vs parental control-Cy3: ESTs (SW1 tumors; upregulated, IMAGE: 809168, hybridizations #1-#4, listed as ATFp2): 2.6457 and 2.6552 and 2.6858 and 2.3889
Ratio ATFp2-Cy5 vs parental control-Cy3: Ogn (osteoglycin) (SW1 tumors; upregulated, IMAGE: 902951, hybridizations #1-#4, listed as ATFp2): 2.7606 and 2.7705 and 2.7398 and 2.3263
Ratio ATFp2-Cy5 vs parental control-Cy3: RIKEN cDNA 1110068L01 gene (SW1 tumors; upregulated, IMAGE: 960604, hybridizations #1-#4, listed as ATFp2): 2.7162 and 2.7260 and 3.6427 and 3.9752
Ratio ATFp2-Cy5 vs parental control-Cy3: Il1b (interleukin 1 beta) (SW1 tumors; upregulated, IMAGE: 1139544, hybridizations #1-#4, listed as ATFp2): 2.5423 and 2.5514 and 3.4806 and 3.3033
Ratio ATFp2-Cy5 vs parental control-Cy3: Igj (immunoglobulin joining chain) (SW1 tumors; upregulated, IMAGE: 1277614, hybridizations #1-#4, listed as ATFp2): 3.0715 and 3.0826 and 3.4986 and 4.0870
Ratio ATFp2-Cy5 vs parental control-Cy3: Sp3 (trans-acting transcription factor 3) (SW1 tumors; upregulated, IMAGE: 1399769, hybridizations #1-#4, listed as ATFp2): 2.3816 and 2.3902 and 3.1712 and 3.6075
Ratio ATFp2-Cy5 vs parental control-Cy3: Efemp1 (epidermal growth factor-containing fibulin) (SW1 tumors; upregulated, IMAGE: 1480170, hybridizations #1-#4, listed as ATFp2): 2.6354 and 2.6449 and 2.6270 and 2.3980
Ratio ATFp2-Cy5 vs parental control-Cy3: Lum (lumican) (SW1 tumors; upregulated, IMAGE: 2101997, hybridizations #1-#4, listed as ATFp2): 2.5956 and 2.6050 and 2.6414 and 2.8732
tumor growth rate ([1]; FEMX cells constitutively expressing peptide, SC in nude mice): reduced the growth rates; also recorded: inhibits growth
tumor growth with additional treatment ([1]; peptide-expressing FEMX tumors plus UCN-01 5 mg/Kg by gavage): additional decrease in growth
degree of apoptosis in tumors (TUNEL) ([1]; peptide-expressing tumors upon exposure to additional treatment): marked increase in the degree of apoptosis
